From ChEMBL document CHEMBL1201862, “PubChem BioAssay data set” (2004)
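Exposure lasted 48 hours, with cells grown in 96-well plates and compounds tested at five concentrations. The concentration for 50% growth inhibition is given as GI50.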 Calls of active or inactive are those of the source. Cut-off read from the data, not from the text of the source: active = GI50 up to about 1.1 µM and inactive = higher.

Assays:
Test in all cases: DTP human tumour cell line panel, 48 h
NCI-H226 = tested on: NCI-H226
ACHN = tested on: ACHN
HOP-92 = tested on: HOP-92
OVCAR-8 = tested on: OVCAR-8
MDA-MB-435 = tested on: MDA-MB-435
A498 = tested on: A498
SK-MEL-5 = tested on: SK-MEL-5
LOX IMVI = tested on: LOX IMVI
OVCAR-5 = tested on: OVCAR-5
COLO 205 = tested on: COLO 205
SF-295 = tested on: SF-295
EKVX = tested on: EKVX
DU-145 = tested on: DU-145
HCT-15 = tested on: HCT-15
TK-10 = tested on: TK-10
SR = tested on: SR
A549 = tested on: A549
HCC 2998 = tested on: HCC 2998
HCT-116 = tested on: HCT-116
SF-268 = tested on: SF-268

Structure (SMILES) | GI50 (NCI-H226) | GI50 (ACHN) | GI50 (HOP-92) | GI50 (OVCAR-8) | GI50 (MDA-MB-435) | GI50 (A498) | GI50 (SK-MEL-5) | GI50 (LOX IMVI) | GI50 (OVCAR-5) | GI50 (COLO 205) | GI50 (SF-295) | GI50 (EKVX) | GI50 (DU-145) | GI50 (HCT-15) [µM] | GI50 (TK-10) | GI50 (SR) | GI50 (A549) | GI50 (HCC 2998) | GI50 (HCT-116) | GI50 (SF-268)
O=C(NC1(c2cc3ccccc3s2)CCCCC1)C1CCC1 | > 100 µM (inactive) | > 100 µM (inactive) | > 100 µM (inactive) | 66.4 µM (inactive) | > 100 µM (inactive) | > 100 µM (inactive) | > 100 µM (inactive) | > 100 µM (inactive) | > 100 µM (inactive) | > 100 µM (inactive) | > 100 µM (inactive) | > 100 µM (inactive) | > 100 µM (inactive) | > 100 | > 100 µM (inactive) | > 100 µM (inactive) | > 100 µM (inactive) | > 100 µM (inactive) | > 100 µM (inactive) | –
O=C(CCCN1CCC(Nc2ccccc2)(c2nnnn2C2CCCCC2)CC1)c1ccc(F)cc1 | 17.9 µM (inactive) | 4.58 µM (inactive) | – | 13.1 µM (inactive) | 6.62 µM (inactive) | > 10 µM (inactive) | 1.64 µM (inactive) | 3.81 µM (inactive) | 7.23 µM (inactive) | 2.24 µM (inactive) | 14.5 µM (inactive) | 3.3 µM (inactive) | 3.81 µM (inactive) | 8.28 | 12.9 µM (inactive) | 6.67 µM (inactive) | 3.49 µM (inactive) | 3.29 µM (inactive) | 4.48 µM (inactive) | 2.4 µM (inactive)
O=c1cc(-c2ccccc2)[nH]c2ccc(N3CCCC3)cc12 | 0.0266 µM (active) | 0.0222 µM (active) | 0.037 µM (active) | 0.0365 µM (active) | < 0.01 µM (active) | 0.0272 µM (active) | 0.0366 µM (active) | < 0.0137 µM (active) | 31.6 µM (inactive) | 0.0196 µM (active) | < 0.01 µM (active) | – | 0.0459 µM (active) | 0.0743 | 5.62 µM (inactive) | 0.0184 µM (active) | 0.0555 µM (active) | 0.172 µM (active) | < 0.0113 µM (active) | 0.173 µM (active)
Nc1ccc(C(=O)c2cn(CCN3CCOCC3)c3ccccc23)c2ccccc12 | – | 48.9 µM (inactive) | – | 20.2 µM (inactive) | 27.7 µM (inactive) | 65.6 µM (inactive) | 20.7 µM (inactive) | 23.4 µM (inactive) | 39.3 µM (inactive) | 24.8 µM (inactive) | 33.3 µM (inactive) | 21.2 µM (inactive) | 63 µM (inactive) | 18.2 | – | 22.9 µM (inactive) | 40.9 µM (inactive) | 47.2 µM (inactive) | 31.7 µM (inactive) | 32.6 µM (inactive)
Cc1nn(-c2ccccn2)c2c1C(SC#N)=C(C=O)CC2 | – | 16.3 µM (inactive) | 16.5 µM (inactive) | 15.9 µM (inactive) | 18.1 µM (inactive) | 2.29 µM (inactive) | 15 µM (inactive) | 15.7 µM (inactive) | 4.85 µM (inactive) | 10.5 µM (inactive) | 30.3 µM (inactive) | 16.9 µM (inactive) | 14.9 µM (inactive) | 17.4 | 1.67 µM (inactive) | 10.1 µM (inactive) | 14.8 µM (inactive) | 11.9 µM (inactive) | 16 µM (inactive) | 16.5 µM (inactive)
C/C(=N\NC(=S)N1CCCCCC1)c1ccccn1 | 0.565 µM (active) | 0.00405 µM (active) | 0.01 µM (active) | 0.00383 µM (active) | 0.601 µM (active) | 0.697 µM (active) | 0.00805 µM (active) | 0.0656 µM (active) | 0.897 µM (active) | 0.00244 µM (active) | < 0.0187 µM (active) | 0.0641 µM (active) | 0.986 µM (active) | – | 0.573 µM (active) | 0.00392 µM (active) | 0.0271 µM (active) | 0.158 µM (active) | 0.00207 µM (active) | 0.405 µM (active)
c1ccc(CSSSCc2ccccc2)cc1 [DIBENZYL TRISULFIDE] | – | 1.69 µM (inactive) | – | 1.15 µM (inactive) | 0.568 µM (active) | 18.6 µM (inactive) | 1.88 µM (inactive) | 0.621 µM (active) | 3.62 µM (inactive) | 1.87 µM (inactive) | 6.58 µM (inactive) | 6.52 µM (inactive) | 1.12 µM (active) | 0.581 | 1.62 µM (inactive) | 4.06 µM (inactive) | 5.09 µM (inactive) | 5.58 µM (inactive) | 0.272 µM (active) | 3.57 µM (inactive)
COc1ccc(/C=C/c2cc(OC)cc(=O)o2)cc1 [YANGONIN] | > 100 µM (inactive) | 61.7 µM (inactive) | 45.2 µM (inactive) | > 100 µM (inactive) | > 100 µM (inactive) | – | > 100 µM (inactive) | > 100 µM (inactive) | > 100 µM (inactive) | > 100 µM (inactive) | 37.2 µM (inactive) | > 100 µM (inactive) | 95.9 µM (inactive) | > 100 | 45.1 µM (inactive) | > 100 µM (inactive) | > 100 µM (inactive) | > 100 µM (inactive) | 77.6 µM (inactive) | 60.1 µM (inactive)
